The conditions of this series: Crystal; DTA.

± gives the expanded uncertainty stated by the source.

On to `CC(=O)[C@@]12O[C@@H]1C[C@H]1[C@@H]3CCC4=CC(=O)CC[C@]4(C)[C@H]3CC[C@@]12C` [16α,17-epoxypregn-4-ene-3,20-dione], for which the Normal melting temperature was 205.50 ± 1.1 °C.

Source of the values: the NIST ThermoML archive (doi:10.1021/je050195w).
